Values after ≈ are worked out from the molar mass of the structure shown.
Legend:
Assay in all cases: in vitro antibacterial evaluation, MIC by broth dilution
Format in all cases: cell-based
Escherichia coli = settings: 18 hours at 35° C.
Streptococcus sp. = settings: broth dilution, 18 hours at 35° C.
Method in brief: (§1)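 Read-out: the lowest concentration at which the test strain fails to grow. Serial dilutions (64-0.06 μg/mL) in Muller-Hinton II […], 5×10^5 CFU/mL inoculum, NCCLS M7-A2 procedure.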

Enterococcus sp. = settings: broth dilution, 18 hours at 35° C.
Method in brief: as §1

Staphylococcus sp. = settings: broth dilution, 18 hours at 35° C.
Method in brief: as §1

MIC Escherichia coli (ATCC 25922) (Escherichia coli): >64 µg/mL
MIC Escherichia coli (GC 4559) (Escherichia coli): >64 µg/mL
MIC Escherichia coli (GC 4560) (Escherichia coli): 64 µg/mL (≈ 44 µM)
MIC Streptococcus agalactiae (GC 4564) (Streptococcus sp.): 32 µg/mL (≈ 22 µM)
MIC Streptococcus pneumoniae (ATCC 6301) (Streptococcus sp.): 32 µg/mL (≈ 22 µM)
MIC Streptococcus pneumoniae (GC 1894) (Streptococcus sp.): 8 µg/mL (≈ 5.5 µM)
MIC Streptococcus pneumoniae (GC 4565) (Streptococcus sp.): 16 µg/mL (≈ 11 µM)
MIC Streptococcus pyogenes (GC 4563) (Streptococcus sp.): 32 µg/mL (≈ 22 µM)
MIC Streptococcus pneumoniae (ATCC 6301) (Streptococcus sp.; inoculum 5×10^5 CFU/mL, strain ATCC 6301): 32 µg/mL (≈ 22 µM)
MIC Streptococcus pneumoniae (GC 1894) (Streptococcus sp.; inoculum 5×10^5 CFU/mL, strain GC 1894): 8 µg/mL (≈ 5.5 µM)
MIC Streptococcus pyogenes (GC 4563) (Streptococcus sp.; inoculum 5×10^5 CFU/mL, strain GC 4563): 32 µg/mL (≈ 22 µM)
MIC Streptococcus agalactiae (GC 4564) (Streptococcus sp.; inoculum 5×10^5 CFU/mL, strain GC 4564): 32 µg/mL (≈ 22 µM)
MIC Streptococcus pneumoniae (GC 4565) (Streptococcus sp.; inoculum 5×10^5 CFU/mL, strain GC 4565): 16 µg/mL (≈ 11 µM)
MIC Enterococcus avium (GC 4558) (Enterococcus sp.): 32 µg/mL (≈ 22 µM)
MIC Enterococcus faecalis (ATCC 29212) (Enterococcus sp.): >64 µg/mL
MIC Enterococcus faecalis (GC 2242) (Enterococcus sp.): 64 µg/mL (≈ 44 µM)
MIC Enterococcus faecalis (GC 2691) (Enterococcus sp.): >64 µg/mL
MIC Enterococcus faecalis (GC 3059) (Enterococcus sp.): >64 µg/mL
MIC Enterococcus faecalis (GC 4552) (Enterococcus sp.): >64 µg/mL
MIC Enterococcus faecalis (GC 4553) (Enterococcus sp.): 64 µg/mL (≈ 44 µM)
MIC Enterococcus faecalis (GC 4554) (Enterococcus sp.): >64 µg/mL
MIC Enterococcus faecalis (GC 6189) (Enterococcus sp.): 64 µg/mL (≈ 44 µM)
MIC Enterococcus faecium (GC 2243) (Enterococcus sp.): 64 µg/mL (≈ 44 µM)
MIC Enterococcus faecium (GC 4556) (Enterococcus sp.): >64 µg/mL
MIC Enterococcus faecium (GC 4557) (Enterococcus sp.): 32 µg/mL (≈ 22 µM)
MIC Enterococcus faecalis (ATCC 29212) (Enterococcus sp.; strain ATCC 29212): >64 µg/mL
MIC Enterococcus faecium (GC 2243) (Enterococcus sp.; strain GC 2243): 64 µg/mL (≈ 44 µM)
MIC Enterococcus faecalis (GC 4552) (Enterococcus sp.; strain GC 4552): >64 µg/mL
MIC Enterococcus faecalis (GC 4553) (Enterococcus sp.; strain GC 4553): 64 µg/mL (≈ 44 µM)
MIC Enterococcus faecalis (GC 4554) (Enterococcus sp.; strain GC 4554): >64 µg/mL
MIC Enterococcus faecium (GC 4556) (Enterococcus sp.; strain GC 4556): >64 µg/mL
MIC Enterococcus faecium (GC 4557) (Enterococcus sp.; strain GC 4557): 32 µg/mL (≈ 22 µM)
MIC Enterococcus avium (GC 4558) (Enterococcus sp.; strain GC 4558): 32 µg/mL (≈ 22 µM)
MIC Enterococcus faecalis (GC 6189) (Enterococcus sp.; strain GC 6189): 64 µg/mL (≈ 44 µM)
MIC Enterococcus faecalis (GC 2242) (Enterococcus sp.; inoculum 5×10^5 CFU/mL, strain GC 2242): 64 µg/mL (≈ 44 µM)
MIC Enterococcus faecalis (GC 2691) (Enterococcus sp.; inoculum 5×10^5 CFU/mL, strain GC 2691): >64 µg/mL
MIC Enterococcus faecalis (GC 3059) (Enterococcus sp.; inoculum 5×10^5 CFU/mL, strain GC 3059): >64 µg/mL
MIC Coagulase Negative Staphylococcus (GC 4547) (Staphylococcus sp.): 64 µg/mL (≈ 44 µM)
MIC Coagulase Negative Staphylococcus (GC 4548) (Staphylococcus sp.): 32 µg/mL (≈ 22 µM)
MIC Coagulase Negative Staphylococcus (GC 4549) (Staphylococcus sp.): 32 µg/mL (≈ 22 µM)
MIC Coagulase Negative Staphylococcus (GC 4551) (Staphylococcus sp.): 64 µg/mL (≈ 44 µM)
MIC Coagulase Negative Staphylococcus (GC 6257) (Staphylococcus sp.): 32 µg/mL (≈ 22 µM)
MIC Staphylococcus aureus (ATCC 29213) (Staphylococcus sp.): 64 µg/mL (≈ 44 µM)
MIC Staphylococcus aureus (GC 1131) (Staphylococcus sp.): 64 µg/mL (≈ 44 µM)
MIC Staphylococcus aureus (GC 3051) (Staphylococcus sp.): 64 µg/mL (≈ 44 µM)
MIC Staphylococcus aureus (GC 3053) (Staphylococcus sp.): 64 µg/mL (≈ 44 µM)
MIC Staphylococcus aureus (GC 4541) (Staphylococcus sp.): 64 µg/mL (≈ 44 µM)
MIC Staphylococcus aureus (GC 4542) (Staphylococcus sp.): 64 µg/mL (≈ 44 µM)
MIC Staphylococcus aureus (GC 4544) (Staphylococcus sp.): 64 µg/mL (≈ 44 µM)
MIC Staphylococcus aureus (GC 4545) (Staphylococcus sp.): 64 µg/mL (≈ 44 µM)
MIC Staphylococcus aureus-SMITH (GC 4543) (Staphylococcus sp.): 64 µg/mL (≈ 44 µM)
MIC Staphylococcus aureus (ATCC 29213) (Staphylococcus sp.; strain ATCC 29213): 64 µg/mL (≈ 44 µM)
MIC Staphylococcus aureus (GC 1131) (Staphylococcus sp.; strain GC 1131): 64 µg/mL (≈ 44 µM)
MIC Staphylococcus aureus (GC 3051) (Staphylococcus sp.; strain GC 3051): 64 µg/mL (≈ 44 µM)
MIC Staphylococcus aureus (GC 3053) (Staphylococcus sp.; strain GC 3053): 64 µg/mL (≈ 44 µM)
MIC Staphylococcus aureus (GC 4541) (Staphylococcus sp.; strain GC 4541): 64 µg/mL (≈ 44 µM)
MIC Staphylococcus aureus (GC 4542) (Staphylococcus sp.; strain GC 4542): 64 µg/mL (≈ 44 µM)
MIC Staphylococcus aureus-SMITH (GC 4543) (Staphylococcus sp.; strain GC 4543): 64 µg/mL (≈ 44 µM)
MIC Staphylococcus aureus (GC 4544) (Staphylococcus sp.; strain GC 4544): 64 µg/mL (≈ 44 µM)
MIC Staphylococcus aureus (GC 4545) (Staphylococcus sp.; strain GC 4545): 64 µg/mL (≈ 44 µM)
MIC Coagulase Negative Staphylococcus (GC 4547) (Staphylococcus sp.; strain GC 4547): 64 µg/mL (≈ 44 µM)
MIC Coagulase Negative Staphylococcus (GC 4548) (Staphylococcus sp.; strain GC 4548): 32 µg/mL (≈ 22 µM)
MIC Coagulase Negative Staphylococcus (GC 4549) (Staphylococcus sp.; strain GC 4549): 32 µg/mL (≈ 22 µM)
MIC Coagulase Negative Staphylococcus (GC 4551) (Staphylococcus sp.; strain GC 4551): 64 µg/mL (≈ 44 µM)
MIC Coagulase Negative Staphylococcus (GC 6257) (Staphylococcus sp.; strain GC 6257): 32 µg/mL (≈ 22 µM)
Compound: CC(c1ccccc1)C1NC(=O)CNC(=O)C(CO)NC(=O)C(C(O)C2CNC(=N)N2C2OC(CO)C(O)C(O)C2O)NC(=O)C(C(O)C2CNC(=N)N2)NC(=O)C(Cc2ccc(OC3OC(CO)C(OC4OC(COCC=Cc5ccc(N(C)C)cc5)C(O)C(O)C4O)C(O)C3O)cc2)NC1=O (stereo not shown) [Example 243]
MIC Staphylococcus haemolyticus (GC 4546) (Staphylococcus sp.): 64 µg/mL (≈ 44 µM)
MIC Staphylococcus haemolyticus (GC 4546) (Staphylococcus sp.; strain GC 4546): 64 µg/mL (≈ 44 µM)

— US6914045B2, “Glycopeptide antibiotics” (Wyeth Holdings Corporation, priority 2001, dated 2005)
